# Source: US5591613A, “Method for the preparation of D-arginine and L-ornithine” (Degussa Aktiengesellschaft, priority 1990, dated 1997)
# pKi: −log10 of the molar value.
# What was measured:
# Calf liver arginase [1] = molecular target: T1, Calf liver arginase (Bos taurus, UniProt Q2KJ64); assay: Arginase-catalysed hydrolysis of L-Arg to L-Orn, initial rates in batch, with and without inhibitors; assay type: biochemical; conditions: for conversion (%) after 1.0 hrs / conversion (%) after 1.5 hrs / conversion (%) after 2.0 hrs / ro, arginase: 0.5 M L-Arg; for conversion (%) after 1.0 hrs / conversion (%) after 1.5 hrs / conversion (%) after 2.0 hrs / ro, arginase / Vo Arginase / conversion after 2 hrs.: starting pH 11.5; for ro, arginase %: relative to 100:0; for kind of inhibition / substrate behaviour: from conversion-time profiles (FIG. 3); for Vo Arginase / conversion after 2 hrs.: 0.75 M L-Arg
# T1 construct: purchased Boehringer Mannheim (Mannheim, F.R.G.)
# T1 sequence (Q2KJ64 1-322): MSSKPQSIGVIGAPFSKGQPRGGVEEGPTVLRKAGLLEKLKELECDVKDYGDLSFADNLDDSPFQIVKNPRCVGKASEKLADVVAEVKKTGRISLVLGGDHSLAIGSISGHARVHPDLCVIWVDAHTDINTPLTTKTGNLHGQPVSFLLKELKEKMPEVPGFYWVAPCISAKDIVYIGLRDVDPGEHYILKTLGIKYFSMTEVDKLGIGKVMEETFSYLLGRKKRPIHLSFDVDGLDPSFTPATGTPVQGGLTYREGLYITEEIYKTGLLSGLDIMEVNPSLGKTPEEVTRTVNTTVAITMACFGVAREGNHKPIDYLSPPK
# Method: In further experiments, the materials used were: Calf liver arginase (activity 110 U/mg) which was obtained from Boehringer Mannheim (Mannheim, F.R.G.). Amino acids were from Rexim (Ham, France). MnSO4, MnO2, and ascorbic acid were from E. Merck (Darmstadt, F.R.G.).
# (§1) Batch conditions used were: Starting pH value, except for the activity-pH curve, was either 11.5, the natural value for L-Arg in water, or 9.5, adjusted from pH 11.5 with conc. HCl. The temperature was 25° C. unless otherwise noted. Typical concentrations of L-Arg were 0.75M. Unless otherwise mentioned, [Mn2^+ ]=5-10^-4 M. Reaction progress was followed by HPLC (amino column, mobile phase: phosphate buffer (pH 6.4)/acetonitrile).
# Kinetic data was obtained as follows: Initial rate data were analyzed by a non-linear regression method (Marquardt routine) with the program OPTI (U. Giesecke, KFA J ulich).
# A linear slope of 1/[S] vs. [I] plot distinguishes a purely competitive inhibition mechanism from a partially competitive one. Simultaneously, the apparent and the intrinsic KM -value are proportional to [I] according to equation (5) from which the inhibition constant KI can be calculated
# Since the runs have been conducted at [LArg]=50 mM=2·Km,intr,Vo =Vmax ·2·KM,intr /(KM,intr (3+[I]/KI))=Vmax ·2/(3+[I]/KI). At [I]=KI, Vo =Vmax 2/(3+1)=Vmax /2. So, KI can be calcuated with sufficient accuracy from a Vo vs. [I] plot such as FIG. 4. […] In this work, however, maximum product concentration was sought for optimal space-time-yield and work-up efficiency.
# ox liver arginase = conditions: literature; cited from earlier work
# arginase = conditions: literature value; cited from earlier work
# Calf liver arginase [2] = molecular target: T1, Calf liver arginase; assay: Activation of arginase by Mn2+ ions; assay type: biochemical
# Method: as §1
# Activation by Mn^2+ ions and MnO2 precipitation: An optimum concentration of the activator Mn^2+ of 0.5 mM was found. At the prevalent alkaline pH values, MnO2 from the oxidation of Mn^2+ precipitates. To suppress oxidation, ascorbic acid was added as an reducing agent.
compound,measurement,setting,value
"N=C(N)NCCC[C@@H](N)C(=O)O [D-Arg, D-arginine]",conversion (%) after 1.0 hrs,Calf liver arginase [1]; Ratio L/D-Arg 50:50 (DL),15.6%
same,conversion (%) after 1.5 hrs,Calf liver arginase [1]; Ratio L/D-Arg 50:50 (DL),19.4%
same,conversion (%) after 2.0 hrs,Calf liver arginase [1]; Ratio L/D-Arg 50:50 (DL),26.4%
same,"ro, arginase",Calf liver arginase [1]; Ratio L/D-Arg 50:50 (DL),0.097 mol/L/h
same,"ro, arginase %",Calf liver arginase [1]; Ratio L/D-Arg 50:50 (DL),59.5%
same,conversion (%) after 1.0 hrs,Calf liver arginase [1]; Ratio L/D-Arg 60:40,22.2%
same,conversion (%) after 1.5 hrs,Calf liver arginase [1]; Ratio L/D-Arg 60:40,32.2%
same,conversion (%) after 2.0 hrs,Calf liver arginase [1]; Ratio L/D-Arg 60:40,35.4%
same,"ro, arginase",Calf liver arginase [1]; Ratio L/D-Arg 60:40,0.1376 mol/L/h
same,"ro, arginase %",Calf liver arginase [1]; Ratio L/D-Arg 60:40,73.6%
same,conversion (%) after 1.0 hrs,Calf liver arginase [1]; Ratio L/D-Arg 70:30,24.6%
same,conversion (%) after 1.5 hrs,Calf liver arginase [1]; Ratio L/D-Arg 70:30,31.8%
same,conversion (%) after 2.0 hrs,Calf liver arginase [1]; Ratio L/D-Arg 70:30,35.4%
same,"ro, arginase",Calf liver arginase [1]; Ratio L/D-Arg 70:30,0.1380 mol/L/h
same,"ro, arginase %",Calf liver arginase [1]; Ratio L/D-Arg 70:30,73.8%
same,conversion (%) after 1.0 hrs,Calf liver arginase [1]; Ratio L/D-Arg 85:15,25.1%
same,conversion (%) after 1.5 hrs,Calf liver arginase [1]; Ratio L/D-Arg 85:15,34.8%
same,conversion (%) after 2.0 hrs,Calf liver arginase [1]; Ratio L/D-Arg 85:15,40.2%
same,"ro, arginase",Calf liver arginase [1]; Ratio L/D-Arg 85:15,0.150 mol/L/h
same,"ro, arginase %",Calf liver arginase [1]; Ratio L/D-Arg 85:15,80.3%
same,kind of inhibition / substrate behaviour,Calf liver arginase [1],neither a substrate of arginase nor a non-competitive inhibitor
"N=C(N)NCCC[C@H](N)C(=O)O [L-Arg, L-arginine]",Km,ox liver arginase,29 mM
same,Km,arginase,4 mM
same,kind of inhibition / substrate behaviour,Calf liver arginase [1],not a substrate inhibitor
same,Vmax,Calf liver arginase [1]; nonlinear regression of initial rate data with L-Arg,459 Units (=μmol/(min·mg))
"NCCCC[C@H](N)C(=O)O [L-Lys, reference compound]",pKi,arginase,2.89
same,Vo Arginase,Calf liver arginase [1]; inhibitor 0.1 M,0.129 mol/L/h
same,conversion after 2 hrs.,Calf liver arginase [1]; inhibitor 0.1 M,34.3%
same,Vo Arginase,Calf liver arginase [1]; inhibitor 0.2 M,0.120 mol/L/h
same,conversion after 2 hrs.,Calf liver arginase [1]; inhibitor 0.2 M,32.1%
same,Vo Arginase,Calf liver arginase [1]; inhibitor 0.4 M,0.086 mol/L/h
same,conversion after 2 hrs.,Calf liver arginase [1]; inhibitor 0.4 M,22.9%
same,Vo Arginase,Calf liver arginase [1]; inhibitor 0.5 M,0.075 mol/L/h
same,conversion after 2 hrs.,Calf liver arginase [1]; inhibitor 0.5 M,19.9%
same,Vo Arginase,Calf liver arginase [1]; inhibitor 0.75 M,0.066 mol/L/h
same,conversion after 2 hrs.,Calf liver arginase [1]; inhibitor 0.75 M,17.5%
same,activity at 100000 µM,Calf liver arginase [1]; read-out: Vo Arginase (%),85.3%
same,activity at 200000 µM,Calf liver arginase [1]; read-out: Vo Arginase (%),79.9%
same,activity at 400000 µM,Calf liver arginase [1]; read-out: Vo Arginase (%),57%
same,activity at 500000 µM,Calf liver arginase [1]; read-out: Vo Arginase (%),49.5%
same,activity at 750000 µM,Calf liver arginase [1]; read-out: Vo Arginase (%),43.5%
"NCCC[C@H](N)C(=O)O [L-Orn, L-ornithine]",pKi,arginase,2.89
[Mn+2] [Mn^2+],optimum concentration of the activator,Calf liver arginase [2],0.5 mM
